Here are results for 17 molecules from ChEMBL document CHEMBL1128867, “Structure-based drug design of nonpeptidic P2 substituents for HIV-1 protease inhibitors” (Bioorg Med Chem Lett, 1995).

One data set concerns CCRF-CEM. The experiment in a line: Inhibitory activity against CEM cells. Format: functional, cell-based. The settings on record: Homo sapiens.
Data set [1] addresses Human immunodeficiency virus type 1 protease (Human immunodeficiency virus 1, UniProt Q72874). The experiment in a line: Inhibitory activity HIV-1 protease enzyme.
Data set [2] can be described thus: Oral availability was tested for plasma levels at a dose of 40 mg/kg, after 6 hr of in fed fisher rats. It counts as ADME, organism-based. On the set-up: dose 40 mg/kg. The following applies: Fischer, rat, read-out: Oral availability.
Data set [3] addresses Human immunodeficiency virus type 1 protease (Human immunodeficiency virus 1) (UniProt Q72874). The experiment in a line: Concentration required for the inhibition against HIV-protease enzyme at a dose of 40 mg/kg in fed fisher rats. Details: dose 40 mg/kg. It counts as organism-based.

Molecules are shown by their SMILES. Values after ≈ are worked out from the molar mass of the structure shown.

Regarding `Cc1ccc(N)cc1C(=O)N[C@@H](CSc1ccc2ccccc2c1)[C@H](O)Cc1ccccc1C(=O)NC(C)(C)C`, the IC50 (as a rule, the concentration that inhibits the measured activity by half) with CCRF-CEM came out at 1.3 µg/mL (≈ 2.34 µM). Besides, the Ki (as a rule, a measure of affinity in units of concentration, obtained from inhibition or displacement) in data set [1] came out at 17 nM.

On to `CC(C)(C)NC(=O)c1ccccc1C[C@@H](O)[C@H](CSc1ccc2ccccc2c1)NC(=O)c1cccc2ncccc12`, for which the IC50 in the data set on CCRF-CEM is 5.7 µg/mL (≈ 9.87 µM). For the same molecule, the Ki in data set [1] came to 113 nM.

In the data set with CCRF-CEM, `CC(C)(C)NC(=O)c1ccccc1C[C@@H](O)[C@H](CSc1ccc2ccccc2c1)NC(=O)c1cccc2c1CCN2` had an IC50 greater than 50 µg/mL. In data set [1], this molecule came in with a Ki of 166 nM.

The molecule `CC(C)(C)NC(=O)c1ccccc1C[C@@H](O)[C@H](CSc1ccc2ccccc2c1)NC(=O)c1cccc(O)c1Cl` returned a Ki in data set [1] of 15 nM.

`CC(C)(C)NC(=O)c1ccccc1C[C@@H](O)[C@H](CSc1ccc2ccccc2c1)NC(=O)c1cccc2c1CCNC2`: the IC50 in the data set with CCRF-CEM was greater than 50 µg/mL. Further, the Ki in data set [1] came out at 180 nM.

In the data set on CCRF-CEM, `CC(C)(C)NC(=O)c1ccccc1C[C@@H](O)[C@H](CSc1ccc2ccccc2c1)NC(=O)c1cccc2c1CCCN2` registered an IC50 of 1.9 µg/mL (≈ 3.27 µM). Moreover, the Ki in data set [1] is 24 nM.

`Cc1c(O)cccc1C(=O)N[C@@H](Cc1ccccc1)[C@H](O)CN1C[C@H]2CCCC[C@H]2C[C@H]1C(=O)NC(C)(C)C` gave an IC50 with CCRF-CEM of 0.01 µg/mL (≈ 0.0187 µM). This molecule yielded a Ki in data set [1] of 21 nM. The bioavailability in data set [2] is 44%. Also, in data set [3], the IC90 (usually the concentration needed for an effect of 90%) was determined as 0.03 µg/mL (≈ 0.056 µM).

On to `CC(C)(C)NC(=O)c1ccccc1C[C@@H](O)[C@H](CSc1ccc2ccccc2c1)NC(=O)c1cccc(N)c1Cl`, for which the IC50 in the data set on CCRF-CEM worked out at 1.5 µg/mL (≈ 2.6 µM). The inhibition constant (Ki) in data set [1] was determined as 16 nM.

With `CC(C)(C)NC(=O)c1ccccc1C[C@@H](O)[C@H](CSc1ccc2ccccc2c1)NC(=O)c1cccc2[nH]ccc12`, 6.6 µg/mL (≈ 11.7 µM) corresponded to half-maximal inhibition in the data set on CCRF-CEM (IC50). For the same molecule, affinity in data set [1] was put at a Ki of 164 nM.

Turning to `CC(C)(C)NC(=O)c1ccccc1C[C@@H](O)[C@H](CSc1ccc2ccccc2c1)NC(=O)c1cccc(N)c1Br`, the midpoint of inhibition in the data set on CCRF-CEM, the IC50, lay at 1.6 µg/mL (≈ 2.58 µM). In data set [1], this molecule came in with a Ki of 33 nM.

In turn, `Cc1c(N)cc(N)cc1C(=O)N[C@@H](CSc1ccc2ccccc2c1)[C@H](O)Cc1ccccc1C(=O)NC(C)(C)C` returned an IC50 in the data set with CCRF-CEM of 0.46 µg/mL (≈ 0.806 µM). In data set [1], this molecule had a Ki of 5 nM.

`CC(C)(C)NC(=O)c1ccccc1C[C@@H](O)[C@H](CSc1ccc2ccccc2c1)NC(=O)c1cccc2cnccc12` gave an IC50 with CCRF-CEM of 16 µg/mL (≈ 27.7 µM). This molecule showed a Ki in data set [1] of 800 nM.

On to `Cc1c(C(=O)N[C@@H](CSc2ccc3ccccc3c2)[C@H](O)Cc2ccccc2C(=O)NC(C)(C)C)cccc1[N+](=O)[O-]`, for which the IC50 in the data set with CCRF-CEM was greater than 50 µg/mL. The molecule further came in with a Ki in data set [1] of 540 nM.

The molecule `CC(C)(C)NC(=O)c1ccccc1C[C@@H](O)[C@H](CSc1ccc2ccccc2c1)NC(=O)c1ccnc2ccccc12` displayed an IC50 with CCRF-CEM of 5.6 µg/mL (≈ 9.69 µM). Also, affinity in data set [1] was put at a Ki of 265 nM.

As to `Cc1c(N)cccc1C(=O)N[C@@H](CSc1ccc2ccccc2c1)[C@H](O)Cc1ccccc1C(=O)NC(C)(C)C`, the IC50 in the data set on CCRF-CEM amounted to 5 µg/mL (≈ 9 µM). Further, the Ki in data set [1] was found to be 49 nM.

In the data set on CCRF-CEM, `Cc1c(O)cccc1C(=O)N[C@@H](CSc1ccc2ccccc2c1)[C@H](O)Cc1ccccc1C(=O)NC(C)(C)C` had an IC50 of 0.97 µg/mL (≈ 1.74 µM). The Ki in data set [1] is 3 nM.

For the molecule `Cc1ccc(O)cc1C(=O)N[C@@H](CSc1ccc2ccccc2c1)[C@H](O)Cc1ccccc1C(=O)NC(C)(C)C`, in data set [1], the Ki is 500 nM.
